Biological target: T1, LmbF (Streptomyces lincolnensis, UniProt A9Y8R7)
T1 construct: recombinant protein; details only in ESI
Assay: in vitro turnover of […] with and without PLP, LC-MS
Assay type: biochemical
Conditions: no turnover without PLP; covalent binding to the substrate amino group is proposed

T1 sequence (A9Y8R7 entry or part of it): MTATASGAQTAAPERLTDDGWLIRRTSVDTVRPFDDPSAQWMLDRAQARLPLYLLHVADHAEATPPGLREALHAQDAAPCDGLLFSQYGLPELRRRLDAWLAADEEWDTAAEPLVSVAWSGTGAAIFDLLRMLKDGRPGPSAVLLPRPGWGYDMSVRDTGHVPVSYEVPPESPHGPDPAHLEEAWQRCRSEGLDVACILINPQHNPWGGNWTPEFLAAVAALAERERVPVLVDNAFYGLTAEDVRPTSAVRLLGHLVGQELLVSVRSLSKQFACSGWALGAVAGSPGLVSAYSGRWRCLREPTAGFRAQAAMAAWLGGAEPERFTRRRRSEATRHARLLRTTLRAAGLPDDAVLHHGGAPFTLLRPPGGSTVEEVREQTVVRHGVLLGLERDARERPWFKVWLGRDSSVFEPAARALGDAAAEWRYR

## Cc1ncc(COP(=O)(O)O)c(C=O)c1O [pyridoxal-5′-phosphate]
  in vitro turnover of 479 with and without PLP, LC-MS: LmbF failed to carry out this reaction in the absence of PLP
